Assay results: PubChem BioAssay AID1919001 (Molecular Pharmacology Branch, DTP, NCI, 2023)
“And” between values parts separate entries of the source, which are not always exact repeats. Equal entries are not always repeated.

System: 699152-130-R-J1-PDC complex spheroid growth
Assay: Anticancer human tumor 699152-130-R-J1-PDC patient-derived pancreatic carcinoma cell line growth inhibition [AhR]
Conditions: for viability, T/C: stronger effect = lower value
From the text: Multicellular complex tumor spheroid response to aryl hydrocarbon receptor antagonists in combination with a variety of drugs and investigational agents in selected tumor cell lines
The current study was undertaken to assess response to aryl hydrocarbon receptor antagonists in combination with standard-of-care drugs and investigational agents in solid tumor complex spheroid models. Complex spheroids include a stromal component modeled by human endothelial cells (HUVEC) and fibroblasts modeled by human mesenchymal stem cells (MSCs). The concentration ranges selected for each drug and investigational agent were based upon clinically achievable concentrations if the clinical Cmax of the agent was known.
Compounds. The drugs and investigational agents: BAY 2416964 (NSC825713), GNF351 (NSC835774), CH-223191 (NSC835775), CPI-455 (NSC825282), aza-TdCyd (NSC777586), decitabine (NSC127716), belinostat (NSC758774), entinostat (NSC756642), pevonedistat (NSC761192), tazemetostat (NSC777109), talazoparib (NSC765396), olaparib (NSC753686), selinexor (NSC780203), nedisertib (M3814, NSC802822), bortezomib (NSC756655), venetoclax (NSC766270), doxorubicin (NSC123127), elimusertib (BAY189344, NSC800525), ceralasertib (AZD6738, NSC777638), TAK-243 (NSC785004), alisertib (NSC759677), etoposide (NSC141540), topotecan (NSC609699), eribulin (NSC707389), gemcitabine (NSC613327), carboplatin (NSC241240), cisplatin (NSC119875), and SN-38 (NSC673596) were obtained from the National Cancer Institute (NCI) Developmental Therapeutics Program Chemical Repository (32). The FDA-approved anticancer drug set is available from the Developmental Therapeutics Program at https://dtp.cancer.gov/organization/dscb/obtaining/available plates.htm. […] The stock solutions were prepared in dimethyl sulfoxide (DMSO, Sigma-Aldrich, St. Louis, MO, cat. D2650), except for the platinum compounds which were prepared in saline (Quality Biological, Gaithersburg, MD, cat. 114-055-101), at 800-fold the tested concentration and stored at -70 degrees C prior to their use. All drugs and investigational agents were tested over a range starting from a high concentration at or near the clinical Cmax and decreasing in half-log increments. If the clinical Cmax for an agent had not been determined, the highest concentration tested was 10 microM (Table 1).
Cell Culture. All cells were maintained in an incubator at 37 degrees C and 5% CO2 with 95% humidity. The PDC lines were cultured according to standard operating procedures established by the NCI PDMR (https://pdmr.cancer.gov). Briefly, all PDCs were thawed and cultured in Matrigel-coated flasks prepared with a working solution of 1X Ham's F-12 nutrient mix, without supplementation (Invitrogen, Waltham, MA, cat. 11765054), 100 U/mL penicillin-streptomycin (Invitrogen, cat. 15140122), and 2.5% Matrigel (Corning Inc., Corning, NY, cat. 354248) for the first three passages. All PDCs were cultured in complete DMEM/F-12 media containing advanced DMEM/F-12 (Invitrogen, cat. 12634028), 4.9% defined fetal bovine serum, heat inactivated (HyClone Laboratories Inc., Logan, UT, cat. SH30070.03HI), 389 ng/mL hydrocortisone (Sigma-Aldrich, cat. H4001), 9.7 ng/mL human EGF recombinant protein (Invitrogen, cat. PHG0313), 23.4 microg/mL adenine (Sigma-Aldrich, cat. A2786), 97.3 U/mL penicillin-streptomycin (Invitrogen, cat. 15140122), 1.9 mM L-glutamine (Invitrogen, cat. 25030081), and 9.7 microM Y-27632 dihydrochloride (Tocris Bioscience, Bristol, United Kingdom, cat. 1254). The PDCs were cultured in complete DMEM/F12 media without 10 microM Y-27632 dihydrochloride for at least two passages prior to the screen. The established cell lines NCI-H1341 and […] were cultured in DMEM/F-12, HEPES (Invitrogen, cat. 11330032), 5% defined fetal bovine serum (HyClone Laboratories Inc., cat. SH30070.03), ITS premix universal culture supplement [insulin (5 microg/mL), transferrin (5 microg/mL), and selenious acid (5 ng/mL)] […]
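Also: compound exposure lasted 7 days after spheroids had grown for 3 days.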

SMILES	IC50 (curve of compound)	viability, T/C (compound 0.0316 µM)	viability, T/C (compound 0.1 µM)	viability, T/C (compound 0.316 µM)	viability, T/C (compound 1 µM)	viability, T/C (compound 3.16 µM)	viability, T/C (compound 10 µM)	further results
CC(C)CC(NC(=O)C(Cc1ccccc1)NC(=O)c1cnccn1)B(O)O (configuration not stated)	16.9 nM and 14.5 nM and 6.7 nM	–	–	–	–	–	–	viability, T/C (compound 0.000949 µM): 107% and 97.5% and 95.3%; viability, T/C (compound 0.003 µM): 107% and 101% and 94.5%; viability, T/C (compound 0.00949 µM): 99.3% and 79% and 30.8%; viability, T/C (compound 0.03 µM): 1.12% and 0.95% and 0.7%; viability, T/C (compound 0.0949 µM): 0.51% and 0.48% and 0.69%; viability, T/C (compound 0.3 µM): 0.46% and 0.87% and 0.49%
CC(C)c1c(-c2ccccc2)nc2c(C#N)c[nH]n2c1=O	> 10000 nM	108% and 92.1% and 105%	102% (2×) and 87.1%	109% and 90% and 107%	97.5% and 90.3% and 96%	112% and 104% and 99.7%	107% and 88.4% and 99.3%	–
CC(CO)NC(=O)c1cc(-c2ccc(Cl)cc2)nn(-c2cnn(C)c2)c1=O (configuration not stated)	–	–	92.1% [middle of 21 runs]	–	–	–	–	IC50 (compound alone, run of 07/12/2022): > 10000 nM
CC1(C)CCC(CN2CCN(c3ccc(C(=O)NS(=O)(=O)c4ccc(NCC5CCOCC5)c([N+](=O)[O-])c4)c(Oc4cnc5[nH]ccc5c4)c3)CC2)=C(c2ccc(Cl)cc2)C1	> 10000 nM	99.2% and 99% and 94.1%	122% and 97.6% and 103%	110% and 102% (2×)	100% and 106% and 101%	106% and 89.5% and 115%	94% and 64.3% and 58.6%	–
CC1COCCN1c1cc(-c2ccnn2C)c2ccnc(-c3ccn[nH]3)c2n1 (configuration not stated)	> 1000 nM	95.6% and 95.9% and 92.5%	85.9% and 90.6% and 95.9%	72.5% and 84.8% and 77.6%	59.9% and 58.5% and 61.5%	–	–	viability, T/C (compound 0.00316 µM): 106% and 92.5% and 103%; viability, T/C (compound 0.01 µM): 106% and 96.9% and 109%
CC1COCCN1c1cc(C2(S(C)(=N)=O)CC2)nc(-c2ccnc3[nH]ccc23)n1 (configuration not stated)	> 10000 nM	100% and 99.4% and 98.3%	103% and 95.1% and 112%	91.5% and 95.4% and 103%	96.7% and 88.4% and 104%	93% and 82.9% and 89.2%	78% and 67.5% and 71.1%	–
CCN(c1cc(-c2ccc(CN3CCOCC3)cc2)cc(C(=O)NCc2c(C)cc(C)[nH]c2=O)c1C)C1CCOCC1	> 3000 nM	–	–	–	–	–	–	viability, T/C (compound 0.00949 µM): 101% and 104% and 103%; viability, T/C (compound 0.03 µM): 95.7% and 110% and 98.5%; viability, T/C (compound 0.0949 µM): 111% and 87.2% and 115%; viability, T/C (compound 0.3 µM): 93.7% and 115% and 95%; viability, T/C (compound 0.949 µM): 107% and 114% and 113%; viability, T/C (compound 3 µM): 105% and 111% and 113%
CC[C@@]1(O)C(=O)OCc2c1cc1n(c2=O)Cc2cc3c(CN(C)C)c(O)ccc3nc2-1	> 100 nM	90.8% and 91.3% and 70%	62.8% and 70.9% and 53.5%	–	–	–	–	viability, T/C (compound 0.000316 µM): 103% and 108% and 86.6%; viability, T/C (compound 0.001 µM): 91.2% and 96.4% and 99%; viability, T/C (compound 0.00316 µM): 104% and 102% and 90%; viability, T/C (compound 0.01 µM): 103% (2×) and 83.5%
CCc1c2c(nc3ccc(O)cc13)-c1cc3c(c(=O)n1C2)COC(=O)[C@]3(O)CC	60.4 nM and 20 nM and 27.7 nM	–	–	–	–	–	–	viability, T/C (compound 0.000949 µM): 85.1% and 90.1% and 88.5%; viability, T/C (compound 0.003 µM): 86.8% and 87.7% and 95.1%; viability, T/C (compound 0.00949 µM): 66.3% and 61.5% and 59.9%; viability, T/C (compound 0.03 µM): 55.8% and 44.3% and 57.9%; viability, T/C (compound 0.0949 µM): 49% and 43.6% and 52%; viability, T/C (compound 0.3 µM): 33.9% and 33.8% and 38%
COc1cc(C2c3cc4c(cc3C(OC3OC5COC(C)OC5C(O)C3O)C3COC(=O)C23)OCO4)cc(OC)c1O (configuration not stated)	> 10000 nM and 4090 nM	97.3% and 94.8% and 92.4%	94.7% and 101% and 86.3%	76.1% and 83.2% and 73.8%	66.5% and 70.9% and 62.2%	68.3% and 64.6% and 51.9%	53.4% and 53.8% and 44.4%	–
COc1cc(Nc2ncc3c(n2)-c2ccc(Cl)cc2C(c2c(F)cccc2OC)=NC3)ccc1C(=O)O	> 10000 nM	97.6% and 87.1% and 94%	71.4% and 74.1% and 85.8%	80.8% and 74.1% and 72%	60.1% and 59.5% and 65.4%	58.4% and 63% and 64.4%	55.9% and 54.8% and 60.7%	–
